For the assay, the target named is T1, human CaSR (Homo sapiens, UniProt P41180).
T1 sequence (P41180 20-1078): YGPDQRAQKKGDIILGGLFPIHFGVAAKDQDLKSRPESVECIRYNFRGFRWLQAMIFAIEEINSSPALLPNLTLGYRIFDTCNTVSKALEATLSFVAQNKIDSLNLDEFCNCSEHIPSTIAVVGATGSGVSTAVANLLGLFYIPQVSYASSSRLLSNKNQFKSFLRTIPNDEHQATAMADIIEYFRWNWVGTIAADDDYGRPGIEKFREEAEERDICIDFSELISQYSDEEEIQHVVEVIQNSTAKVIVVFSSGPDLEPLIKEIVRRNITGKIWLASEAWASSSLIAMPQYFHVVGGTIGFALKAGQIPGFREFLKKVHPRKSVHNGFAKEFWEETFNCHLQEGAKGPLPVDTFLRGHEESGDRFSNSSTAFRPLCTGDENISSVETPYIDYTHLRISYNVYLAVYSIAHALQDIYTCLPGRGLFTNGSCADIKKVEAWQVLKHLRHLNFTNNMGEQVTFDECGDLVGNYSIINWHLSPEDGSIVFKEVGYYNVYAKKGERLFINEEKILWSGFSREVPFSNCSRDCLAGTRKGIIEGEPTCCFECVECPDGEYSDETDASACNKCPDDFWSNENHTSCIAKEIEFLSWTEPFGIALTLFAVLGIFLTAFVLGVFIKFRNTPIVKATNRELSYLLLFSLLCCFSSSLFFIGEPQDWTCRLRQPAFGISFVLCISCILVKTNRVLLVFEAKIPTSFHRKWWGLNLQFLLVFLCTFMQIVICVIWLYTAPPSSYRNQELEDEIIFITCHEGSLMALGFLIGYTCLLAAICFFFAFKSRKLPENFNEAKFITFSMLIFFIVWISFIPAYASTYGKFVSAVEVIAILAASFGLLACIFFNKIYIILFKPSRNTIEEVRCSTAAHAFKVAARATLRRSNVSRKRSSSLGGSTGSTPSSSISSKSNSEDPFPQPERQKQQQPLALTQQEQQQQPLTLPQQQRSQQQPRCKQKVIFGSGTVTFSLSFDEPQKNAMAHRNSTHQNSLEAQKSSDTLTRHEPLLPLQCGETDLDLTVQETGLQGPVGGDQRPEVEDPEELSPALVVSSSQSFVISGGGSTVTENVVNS
Kind of assay: CaSR binding assay (radioligand, HEK293 membranes). More on the design: expressed in transfected cells; host or cells: HEK293 cell membranes. Conditions: for Ki: membranes of HEK293 cells expressing human CaSR, radio-labeled EXAMPLE 25; for IC50: read-out: IC50s (high affinity for the human calcium sensing receptor and potent antagonist activity). The method, then: Procedures for CaSR Binding Assay
Membrane preparations from HEK293 cells expressing the human CaSR were generated. The cells were cultured and then washed twice with 1×PBS. The cells were dissociated by adding 4 ml pre-warmed 0.25% Trypsin-EDTA, and by incubating the flask at RT for 3 minutes. 10 ml media was dispensed over the cell layer surface, and the cells were harvested into a centrifuge tube. The cells were centrifuged at 200×g for 10 minutes. The cell pellet was suspended in 30 ml of membrane preparation buffer and then homogenized on ice twice at 16000 rpm for 10 seconds. Following homogenization, the membrane was collected by centrifuge at 40000×g for 30 minutes at 4° C., washed twice with 30 ml membrane preparation buffer, and centrifuged again at 40000×g for 10 minutes. The membrane pellet was suspended in 30 ml membrane preparation buffer (50 mM Tris, pH7.0, 10 mM MgCl, Proteinase inhibitor (Roche, REF 04693116001), and then homogenized on ice once at 16000 rpm for 10 seconds. The total protein concentration was measured using a BCA kit. The membrane protein concentration was adjusted to 2.4 mg/ml and then diluted with binding buffer (10 mM HEPES, pH7.4, 130 mM NaCl, 0.4 mM CaCl2, 5 mM MgCl2, 1 mM EGTA, 10 mM glucose, 0.1% BSA) to 0.33 μg/μl. The final amount in the binding assay was 20 μg/well. Test compound was serially diluted manually by using BIOHIT multi-channel pipettor in 100% DMSO (10 point, 3-fold dilution of each compound from 5.0 μM in 100% DMSO). 4 μl of serially diluted compound was manually transferred into a second assay microplate that contained 196 μl of binding assay buffer to create the intermediate dilution plate. For background, 20 μl of assay buffer was added to each control well. […] The binding reaction used a 100 μl reaction volume consisting of 10 μl of test compound, 30 μl of diluted radio-labelled compound, and 60 μl of membrane solution (0.33 μg/μl). The reaction mixture was incubated at room temperature for one hour. The Grade GF/C filter plates were presoaked in 0.3% PEI (protect from light) for 60 minutes at room temperature. The plate was then washed three times with ice-cold wash buffer (25 mM Tris-HCl, PH7.4, 130 mM NaCl, 5 mM MgCl2, 0.4 mM CaCl2, 0.1% BSA) prior to filtration of the binding samples. The binding reaction was terminated by rapid filtration of 100 μl binding mixture through the GF/C plate. Plates were then washed 6 times with ice-cold wash buffer. Filter plates were dried with a hair dryer for 20 minutes. 60 μl/well MICROSCINT 20 (a cocktail for microplates) was added to the bottom of sealed filters, then the filters were sealed at the top with tape. Bound radioactivity was counted in a TOPCOUNT scintillation counter. Exemplary compounds bind in the 1-500 nM range.

Take `C[C@@H](OC[C@H](O)CNC(C)(C)Cc1ccc2ccccc2c1)c1cccc2c1O[C@@H]1[C@@H](C(=O)O)[C@H]21` [Example 1-1]: the Ki amounted to 0.018 µM and the IC50 stood at 0.018 µM.

In the case of `C[C@@H](OC[C@H](O)CNC(C)(C)Cc1ccc2ccccc2c1)c1cccc2c1[C@@H]1[C@H](O2)[C@H]1C(=O)O` [Example 5-1], affinity was put at a Ki of 0.007 µM and the IC50 worked out at 0.007 µM.

For the compound `CSc1ccc(CC(C)(C)NC[C@@H](O)CO[C@H](C)c2ccc(C)c3c2C2[C@H](O3)[C@H]2C(=O)O)cc1F` (stereo partly drawn) [Example 8-24], the Ki was 0.029 µM and the IC50 is 0.029 µM.

In general, Ki refers to the equilibrium dissociation constant of an inhibitor or competing ligand from its target. The low end stands for a stronger hold on the target, the high end for a looser hold on the target.

The values are drawn from patent US20160311791A1, “NOVEL TRICYCLIC CALCIUM SENSING RECEPTOR ANTOGONISTS FOR THE TREATMENT OF OSTEOPOSOSIS” (MERCK SHARP & DOHME CORP., priority 2013, published 2016).
